Literature values as cited in patent publication US11400063B2, “Early administration of low-dose colchicine after myocardial infarction” (INSTITUT DE CARDIOLOGIE DE MONTREAL, priority 2019, dated 2022).

Experiments:
stable coronary disease = settings: CANTOS; cited from earlier work
[1] = CIRT; cited from earlier work

| Compound | incidence of fatal infections (stable coronary disease) | lower risk of cardiovascular events than with placebo (stable coronary disease) | cardiovascular outcomes or plasma markers of inflammation [1] |
| --- | --- | --- | --- |
| canakinumab: injectable monoclonal antibody inhibiting interleukin-1β | slightly higher incidence | 15% |  |
| CN(Cc1cnc2nc(N)nc(N)c2n1)c1ccc(C(=O)N[C@@H](CCC(=O)O)C(=O)O)cc1 [methotrexate] |  |  | did not affect |
